Test results reported in US12319726B2, “Method for treating CD40-mediated diseases” (CASE WESTERN RESERVE UNIVERSITY, priority 2008, dated 2025).
Where a SMILES comes first, the peptide text is derived from it. [ ]: non-standard residue; d: D form.

System: human retinal endothelial cells
Assay type: cell-based
Excerpt: Peptide consisted of the TRAF2,3 binding site of CD40 that was made cell permeable by linking them to the TAT47-57 cell penetrating peptide. Peptides were synthesized using D-amino acids following reverse amino acid sequence (ri format). The sequences for the CD40-TRAF2,3 blocking peptide was —NH2-rrrqrrkkrgy ghlteqvhaatn-OH (SEQ ID NO: 49). The TAT47-57 sequence is underlined. The peptide contains a proline (p) to histidine (h) substitution (shown in italics) that enhances affinity to TRAF2. Control (scrambled) peptide consisted of NH2-rrrqrrkkrgy ntqalahtgevh-OH (SEQ ID NO: 50). The blocking peptide was also synthesized with Alexa Fluor 488 conjugated via maleimide coupling to an additional Cys in the N terminus. Peptides were manufactured by Biopeptide Co. (San Diego, CA) and were low in endotoxin and >98% pure by HPLC. Peptides were used at 1 μM in vitro experiments and 1 μg for in vivo studies unless otherwise stated. Peptides were not toxic to human Müller and retinal endothelial cells as assessed by alamarBlue cell viability assay (Invitrogen Corporation).
Primary human retinal endothelial cells were obtained as described (9) and cultured in complete medium supplemented with endothelial cell growth supplement from bovine pituitary (15 μg/ml; Sigma Chemical, St Louis, MO) and insulin/transferrin/selenium (Sigma Chemical). Cell identity was confirmed by incorporation of acetylated low-density lipoprotein (>90%). Endothelial cells were used between passages 3 to 6. The human Müller cell line MIO M1 (gift from Dr. Gloria Limb; University College London, UK; >95% vimentin^+, CRALBP^+ and GFAP^−) was also used. Endothelial cells were incubated with multimeric human CD154 to induce CD40 stimulation (obtained from Dr. Richard Kornbluth, Multimeric Biotherapeutics Inc., La Jolla, CA) or with a non-functional CD154 mutant (T147N) as control.
Peptides were tested as described using the mouse endothelial cells mHEVc that expresses a chimera of the extracellular domain of human CD40 and intracytoplasmic domain of mouse CD40 (hmCD40) with either a mutation that prevents recruitment of TRAF2,3 (hmCD40 ΔT2,3) or TRAF6 (hmCD40 ΔT6). These cells were transfected with pGL4.32luc2P/NF-κB-RE/Hygro vector (Promega Corporation, Madison, WI) encoding an NF-κB response element that drives the luciferase reporter gene luc2P (Photinus pyralis). Cells were pre-incubated with peptides for 3 hr. followed by stimulation with human CD154. Luciferase activity was assessed using a Steady-Glo luciferase assay system (Promega Corporation) and a luminometer. The effects of peptides on cell viability were examined using alamarBlue cell viability assay.

For `CC(C)C[C@@H](NC(=O)[C@@H](Cc1c[nH]cn1)NC(=O)CNC(=O)[C@@H](Cc1ccc(O)cc1)NC(=O)CNC(=O)[C@@H](CCCNC(=N)N)NC(=O)[C@@H](CCCCN)NC(=O)[C@@H](CCCCN)NC(=O)[C@@H](CCCNC(=N)N)NC(=O)[C@@H](CCCNC(=N)N)NC(=O)[C@@H](CCC(N)=O)NC(=O)[C@@H](CCCNC(=N)N)NC(=O)[C@@H](CCCNC(=N)N)NC(=O)[C@H](N)CCCNC(=N)N)C(=O)N[C@@H](C(=O)N[C@H](CCC(=O)O)C(=O)N[C@H](CCC(N)=O)C(=O)N[C@@H](C(=O)N[C@H](Cc1c[nH]cn1)C(=O)N[C@H](C)C(=O)N[C@H](C)C(=O)N[C@@H](C(=O)N[C@H](CC(N)=O)C(=O)O)[C@H](C)O)C(C)C)[C@H](C)O` [ri CD40-TRAF2,3 blocking peptide, NH2-rrrqrrkkrgy ghlteqvhaatn-OH] (H-[dR][dR][dR][dQ][dR][dR][dK][dK][dR]G[dY]G[dH][dL][dT][dE][dQ][dV][dH][dA][dA][dT][dN]-OH), the “toxicity (alamarBlue cell viability assay)” value was “not toxic”.
